Test results from EP2408450B1, “ALPHA-(N-SULFONAMIDO)ACETAMIDE COMPOUND AS AN INHIBITOR OF BETA AMYLOID PEPTIDE PRODUCTION” (Bristol-Myers Squibb Company, priority 2009, dated 2010).

Target: T1, human pregnane-X receptor (Homo sapiens, UniProt O75469)
T1 construct: expressed in transfected cells; host or cells: HepG2 cells, transiently transfected with PXR-pcDNA3 and CYP3A-Luc
T1 sequence (O75469 1-434): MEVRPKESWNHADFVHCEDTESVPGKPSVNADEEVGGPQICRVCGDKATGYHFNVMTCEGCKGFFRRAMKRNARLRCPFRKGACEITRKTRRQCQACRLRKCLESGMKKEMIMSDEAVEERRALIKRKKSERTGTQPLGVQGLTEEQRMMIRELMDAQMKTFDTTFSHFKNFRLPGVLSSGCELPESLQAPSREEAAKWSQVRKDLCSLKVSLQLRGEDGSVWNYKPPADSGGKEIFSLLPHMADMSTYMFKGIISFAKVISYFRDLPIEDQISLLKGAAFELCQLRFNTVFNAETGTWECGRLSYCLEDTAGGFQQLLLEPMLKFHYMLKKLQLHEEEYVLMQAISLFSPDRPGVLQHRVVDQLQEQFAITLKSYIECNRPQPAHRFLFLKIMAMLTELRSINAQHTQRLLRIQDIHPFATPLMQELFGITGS
Assay: PXR transactivation assay (CYP3A-Luc reporter in HepG2 cells)
Format: cell-based
Conditions: hPXR transactivation assay
Source text: Pregnane X receptor (PXR) is a nuclear hormone receptor principally responsible for the induction of cytochrome P450 (CYP) 3A4, which plays a major role in metabolizing many clinically prescribed drugs. It is well known that the induction of CYP3A4 can cause either drug-drug interaction by increasing the metabolic clearance of co-administered CYP3A4 substrates (Bertilsson, G. et al., Proc. Nat. Acad. Sci. USA, 95:12208-12213 (1998); Lehmann, J.M. et al., J. Clin. Invest., 102:1016-1023 (1998)) or can cause loss of drug exposure due to autoinduction. Characterizing the induction potential of discovery or development drug candidates has become an important screen throughout the pharmaceutical industry. […]
Cells in each flask are washed with PBS and 4 mL of Trypsin-EDTA (0.25%) is added and incubated for one minute at room temperature. […] Cells are then counted and diluted in media to 3.0 x 10^5 cells/mL. […] After fifteen minutes, plates are read on a Viewlux (Perkin-Elmer) plate reader.
Rifampicin (10 µM), a well known agonist of PXR, is included in each plate as an internal standard and positive control. The data was then expressed as percent activation (%Act), where the total signal is the signal from the 10 µM rifampicin and the blank signal is that from the DMSO vehicle. %Act = (Compound signal-Blank signal)/(Toal signal-Blank signal) × 100% [formula] […]

NC(=O)[C@@H](CCC(F)(F)F)N(Cc1ccc(-c2ncon2)cc1F)S(=O)(=O)c1ccc(Cl)cc1 [(2R)-2-[[(4-chlorophenyl)sulfonyl][[2-fluoro-4-(1,2,4-oxadiazol-3-yl)phenyl]methyl]amino]-5,5,5-trifluoropentanamide]
EC20A (20% of the Rifampicin response at 10 µM): 6.9 µM | EC60A (60% of the Rifampicin response at 10 µM): greater than 16.7 µM
